Results as given in EP3046573B1, “AMYLIN ANALOGUES” (Zealand Pharma A/S, priority 2013, dated 2015).
Read-outs that look alike come from different tables or passages of the source. Numbered stars: 1 amine (or outer) side, 2 acyl side, 3 side chain; on linkers, the order of the positions; unused ones are H or OH. Bridge positions count the residues as written; N and C are the ends. Square brackets hold non-standard residues; d marks the D form. Peptide text beside a SMILES is read from it. * marks the point of attachment. C20 diacid = O=C(O)CCCCCCCCCCCCCCCCCCC(=O)*; γGlu = O=C(O)[C@H](CCC(=O)[*:2])N[*:1]; NMeI = CC[C@H](C)[C@H](NC)C(=O)O; NMeA = CN[C@@H](C)C(=O)O; Aze = O=C(O)[C@@H]1CCN1; Sar = CNCC(=O)O

Tests used:
[1] = biological target: T1, human calcitonin receptor (hCTR2) (Homo sapiens, UniProt P30988); test: hCTR2 assay: induction of cAMP (AlphaScreen cAMP Assay kit) in COS7 cells expressing hCTR2; format: cell-based
T1 construct: expressed in transfected cells
T1 sequence (P30988 25-474): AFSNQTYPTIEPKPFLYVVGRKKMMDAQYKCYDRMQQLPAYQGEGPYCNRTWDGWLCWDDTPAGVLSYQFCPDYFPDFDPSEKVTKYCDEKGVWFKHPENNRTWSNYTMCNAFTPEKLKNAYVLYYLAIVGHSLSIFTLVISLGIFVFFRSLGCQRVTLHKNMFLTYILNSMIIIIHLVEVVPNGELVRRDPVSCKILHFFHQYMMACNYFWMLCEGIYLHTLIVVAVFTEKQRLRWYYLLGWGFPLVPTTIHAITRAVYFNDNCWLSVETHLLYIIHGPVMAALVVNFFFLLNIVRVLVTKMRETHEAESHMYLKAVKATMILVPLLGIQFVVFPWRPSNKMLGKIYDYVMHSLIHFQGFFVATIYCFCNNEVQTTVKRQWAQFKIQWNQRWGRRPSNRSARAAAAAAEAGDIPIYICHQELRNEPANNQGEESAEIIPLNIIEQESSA
Summary of the method: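 Cells were seeded one day ahead, washed, then exposed to rising peptide concentrations for 15 min at 37° C in the presence of 100 µM IBMX. After lysis for 10 min at room temperature, cAMP was quantified by AlphaScreen and EC50 values derived by 4PL fitting.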

[2] = biological target: T2, human amylin receptor 3 (hAMYR3) consisting of hCTR2 co-expressed with human Receptor Activity Modifying Protein 3 (hRAMP3) (Homo sapiens, UniProt O60896+P30988); test: hAMYR3 assay: induction of cAMP (AlphaScreen cAMP Assay kit) in COS7 cells expressing hAMYR3; format: cell-based
T2 construct: expressed in transfected cells
T2 sequence (P30988 25-474): T1 sequence (P30988 25-474)
T2 sequence (O60896 24-148 partner): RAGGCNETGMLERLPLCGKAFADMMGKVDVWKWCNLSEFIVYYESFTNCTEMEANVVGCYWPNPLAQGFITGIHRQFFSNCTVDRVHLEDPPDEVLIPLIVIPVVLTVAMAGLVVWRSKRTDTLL
Summary of the method: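 cAMP accumulation read by AlphaScreen in lysates of RAMP-naive COS7 cells stably transfected with hCTR2 plus hRAMP3. Cells exposed to peptide dilutions for 15 min, 37° C, with 100 µM IBMX; 4PL fitting gave EC50 and efficacy relative to pramlintide.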

[3] = Solubility assessment (turbidity absorbance at 325 nm); format: physicochemical; conditions: stock 2 mg/ml diluted 1:1, ambient temperature (typically 25°C), n=1; for Solubility, Acetate buffer pH 4: 100 mM acetate buffer pH 4.0; for Solubility, Acetate buffer pH 5: 100 mM acetate buffer pH 5.0; for Solubility, Histidine buffer pH 6: 100 mM histidine buffer pH 6.0; for Solubility, Histidine buffer pH 7: 100 mM histidine buffer pH 7.0; for Solubility, Phosphate buffer pH 6: 100 mM phosphate buffer pH 6.0; for Solubility, Phosphate buffer pH 7: 100 mM phosphate buffer pH 7.0; for Solubility, Phosphate buffer pH 7.5: 100 mM phosphate buffer pH7.5
Summary of the method: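 Read-out: turbidity as absorbance at 325 nm (280 nm also read), single samples, ambient temperature of typically 25°C. Samples were a 1:1 mix of 2 mg/ml stock (water, pH 2.5) with 100 mM acetate, histidine or phosphate buffers spanning pH 4.0–7.5. Cut-off: A325 ≤ 0.02 indicates ≥ 1 mg/ml.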

EC50 ([1]; cAMP induction in COS7 cells expressing hCTR2, average of a minimum of 3 determinations, read-out: hCTR2 EC50)	EC50 ([2]; cAMP induction in COS7 cells expressing hAMYR3, average of a minimum of 3 determinations, read-out: hAMY R3 EC50)	Compound	EC50 [1]	EC50 [2]	Solubility, Acetate buffer pH 4 [3]	Solubility, Acetate buffer pH 5 [3]	Solubility, Histidine buffer pH 6 [3]	Solubility, Histidine buffer pH 7 [3]	Solubility, Phosphate buffer pH 6 [3]	Solubility, Phosphate buffer pH 7 [3]	Solubility, Phosphate buffer pH 7.5 [3]
–	–	CC[C@H](C)[C@@H](C(=O)N[C@@H](CC(C)C)C(=O)N[C@@H](CO)C(=O)N[C@@H](CO)C(=O)N[C@H](C(=O)N[C@@H](CC(N)=O)C(=O)N[C@H](C(=O)NCC(=O)N[C@@H](CO)C(=O)N[C@@H](CC(N)=O)C(=O)N[C@H](C(=O)N(C)[C@@H](C)C(N)=O)[C@@H](C)O)C(C)C)[C@@H](C)O)N(C)C(=O)[C@H](C)NC(=O)CN(C)C(=O)[C@H](Cc1ccccc1)NC(=O)[C@H](CC(N)=O)NC(=O)[C@H](CC(N)=O)NC(=O)[C@H](CO)NC(=O)[C@H](CO)NC(=O)[C@H](CCCNC(=N)N)NC(=O)[C@H](Cc1c[nH]cn1)NC(=O)[C@H](CC(C)C)NC(=O)[C@H](Cc1ccccc1)NC(=O)[C@H](CCC(=O)O)NC(=O)[C@H](C)NC(=O)[C@H](CC(C)C)NC(=O)[C@H](CCCNC(=N)N)NC(=O)[C@H](CCC(N)=O)NC(=O)[C@@H](NC(=O)[C@H](C)NC(=O)[C@@H]1CSSC[C@H](NC(=O)[C@H](CCCNC(=N)N)NC(=O)CC[C@H](NC(=O)CCCCCCCCCCCCCCCCCCC(=O)O)C(=O)O)C(=O)N[C@@H](CC(N)=O)C(=O)N[C@@H]([C@@H](C)O)C(=O)N[C@@H](C)C(=O)N[C@@H]([C@@H](C)O)C(=O)N1)[C@@H](C)O [Compound 102, [19CD]-isoGlu-RC()NTATC()ATQRLAEFLHRSSNNF-Gly(Me)-A-Ile(Me)-LSSTNVGSNT-Ala(Me)-NH2] ({C20 diacid-γGlu}-RCNTATCATQRLAEFLHRSSNNF[Sar]A[NMeI]LSSTNVGSNT[NMeA]-NH2; disulfide 2-7)	0.42 nM	1 nM	SS (SS indicates solubility ≥ 1mg/ml)	II (II indicates solubility ≤ 1 mg/ml)	SS (SS indicates solubility ≥ 1mg/ml)	SS (SS indicates solubility ≥ 1mg/ml)	II (II indicates solubility ≤ 1 mg/ml)	SS (SS indicates solubility ≥ 1mg/ml)	SS (SS indicates solubility ≥ 1mg/ml)
–	–	CC[C@H](C)[C@@H](C(=O)N[C@@H](CC(C)C)C(=O)N[C@@H](CO)C(=O)N[C@@H](CO)C(=O)N[C@H](C(=O)N[C@@H](CC(N)=O)C(=O)N[C@H](C(=O)NCC(=O)N[C@@H](CO)C(=O)N[C@@H](CC(N)=O)C(=O)N[C@H](C(=O)N(C)[C@H](C(N)=O)[C@@H](C)CC)[C@@H](C)O)C(C)C)[C@@H](C)O)N(C)C(=O)[C@H](C)NC(=O)CN(C)C(=O)[C@H](Cc1ccccc1)NC(=O)[C@H](CC(N)=O)NC(=O)[C@H](CC(N)=O)NC(=O)[C@H](CO)NC(=O)[C@H](CO)NC(=O)[C@H](CCCNC(=N)N)NC(=O)[C@H](Cc1c[nH]cn1)NC(=O)[C@H](CC(C)C)NC(=O)[C@H](Cc1ccccc1)NC(=O)[C@H](CCC(=O)O)NC(=O)[C@H](C)NC(=O)[C@H](CC(C)C)NC(=O)[C@H](CCCNC(=N)N)NC(=O)[C@H](CCC(N)=O)NC(=O)[C@@H](NC(=O)[C@H](C)NC(=O)[C@@H]1CSSC[C@H](NC(=O)[C@H](CCCNC(=N)N)NC(=O)CC[C@H](NC(=O)CCCCCCCCCCCCCCCCCCC(=O)O)C(=O)O)C(=O)N[C@@H](CC(N)=O)C(=O)N[C@@H]([C@@H](C)O)C(=O)N[C@@H](C)C(=O)N[C@@H]([C@@H](C)O)C(=O)N1)[C@@H](C)O [Compound 103, [19CD]-isoGlu-RC()NTATC()ATQRLAEFLHRSSNNF-Gly(Me)-A-Ile(Me)-LSSTNVGSNT-Ile(Me)-NH2H2] ({C20 diacid-γGlu}-RCNTATCATQRLAEFLHRSSNNF[Sar]A[NMeI]LSSTNVGSNT[NMeI]-NH2; disulfide 2-7)	0.65 nM	5.1 nM	SS (SS indicates solubility ≥ 1mg/ml)	SS (SS indicates solubility ≥ 1mg/ml)	SS (SS indicates solubility ≥ 1mg/ml)	SS (SS indicates solubility ≥ 1mg/ml)	II (II indicates solubility ≤ 1 mg/ml)	SS (SS indicates solubility ≥ 1mg/ml)	SS (SS indicates solubility ≥ 1mg/ml)
–	–	CC[C@H](C)[C@@H](C(=O)N[C@@H](CC(C)C)C(=O)N[C@@H](CO)C(=O)N[C@@H](CO)C(=O)N[C@H](C(=O)N[C@@H](CC(N)=O)C(=O)N[C@H](C(=O)NCC(=O)N[C@@H](CO)C(=O)N[C@@H](CC(N)=O)C(=O)N[C@H](C(=O)N1CCC[C@@H]1C(N)=O)[C@@H](C)O)C(C)C)[C@@H](C)O)N(C)C(=O)[C@H](C)NC(=O)CN(C)C(=O)[C@H](Cc1ccccc1)NC(=O)[C@H](CC(N)=O)NC(=O)[C@H](CC(N)=O)NC(=O)[C@H](CO)NC(=O)[C@H](CO)NC(=O)[C@H](CCCNC(=N)N)NC(=O)[C@H](Cc1c[nH]cn1)NC(=O)[C@H](CC(C)C)NC(=O)[C@H](Cc1ccccc1)NC(=O)[C@H](CCC(=O)O)NC(=O)[C@H](C)NC(=O)[C@H](CC(C)C)NC(=O)[C@H](CCCNC(=N)N)NC(=O)[C@H](CCC(N)=O)NC(=O)[C@@H](NC(=O)[C@H](C)NC(=O)[C@@H]1CSSC[C@H](NC(=O)[C@H](CCCNC(=N)N)NC(=O)CC[C@H](NC(=O)CCCCCCCCCCCCCCCCCCC(=O)O)C(=O)O)C(=O)N[C@@H](CC(N)=O)C(=O)N[C@@H]([C@@H](C)O)C(=O)N[C@@H](C)C(=O)N[C@@H]([C@@H](C)O)C(=O)N1)[C@@H](C)O [Compound 104, [19CD]-isoGlu-RC()NTATC()ATQRLAEFLHRSSNNF-Gly(Me)-A-Ile(Me)-LSSTNVGSNT-DPro-NH2] ({C20 diacid-γGlu}-RCNTATCATQRLAEFLHRSSNNF[Sar]A[NMeI]LSSTNVGSNT[dP]-NH2; disulfide 2-7)	0.7 nM	4.8 nM	SS (SS indicates solubility ≥ 1mg/ml)	SS (SS indicates solubility ≥ 1mg/ml)	SS (SS indicates solubility ≥ 1mg/ml)	SS (SS indicates solubility ≥ 1mg/ml)	II (II indicates solubility ≤ 1 mg/ml)	SS (SS indicates solubility ≥ 1mg/ml)	SS (SS indicates solubility ≥ 1mg/ml)
0.32 nM	0.67 nM	CC[C@H](C)[C@@H](C(=O)N[C@@H](CC(C)C)C(=O)N[C@@H](CO)C(=O)N[C@@H](CO)C(=O)N[C@H](C(=O)N[C@@H](CC(N)=O)C(=O)N[C@H](C(=O)NCC(=O)N[C@@H](CO)C(=O)N[C@@H](CC(N)=O)C(=O)N[C@H](C(=O)N1CC[C@H]1C(N)=O)[C@@H](C)O)C(C)C)[C@@H](C)O)N(C)C(=O)CN(C)C(=O)[C@H](Cc1ccccc1)NC(=O)[C@H](CC(N)=O)NC(=O)[C@H](CC(N)=O)NC(=O)[C@H](CO)NC(=O)[C@H](CO)NC(=O)[C@H](CCCNC(=N)N)NC(=O)[C@H](Cc1c[nH]cn1)NC(=O)[C@H](CC(C)C)NC(=O)[C@H](Cc1ccccc1)NC(=O)[C@H](CCC(=O)O)NC(=O)[C@H](C)NC(=O)[C@H](CC(C)C)NC(=O)[C@H](CCCNC(=N)N)NC(=O)[C@H](CCC(N)=O)NC(=O)[C@@H](NC(=O)[C@H](C)NC(=O)[C@@H]1CSSC[C@H](NC(=O)[C@H](CCCNC(=N)N)NC(=O)CC[C@H](NC(=O)CCCCCCCCCCCCCCCCCCC(=O)O)C(=O)O)C(=O)N[C@@H](CC(N)=O)C(=O)N[C@@H]([C@@H](C)O)C(=O)N[C@@H](C)C(=O)N[C@@H]([C@@H](C)O)C(=O)N1)[C@@H](C)O [Compound 108, [19CD]-isoGlu-RC()NTATC()ATQRLAEFLHRSSNNF-Gly(Me)-Ile(Me)-LSSTNVGSNT-Aze-NH2] ({C20 diacid-γGlu}-RCNTATCATQRLAEFLHRSSNNF[Sar][NMeI]LSSTNVGSNT[Aze]-NH2; disulfide 2-7)	–	–	SS (SS indicates solubility ≥ 1mg/ml)	SS (SS indicates solubility ≥ 1mg/ml)	SS (SS indicates solubility ≥ 1mg/ml)	SS (SS indicates solubility ≥ 1mg/ml)	SS (SS indicates solubility ≥ 1mg/ml)	SS (SS indicates solubility ≥ 1mg/ml)	SS (SS indicates solubility ≥ 1mg/ml)
